pIC50: −log10 of the molar value. Counter-ions that a name gives are not always drawn. Like-named read-outs stand apart in the source and are kept apart here.

Assay type in all cases: biochemical
The target in test [1] is T1, human JAK1 (a.a. 837-1142) (Homo sapiens, UniProt P23458).
T1 construct: human JAK1 (a.a. 837-1142); His tag (N); made in house; host or cells: insect cells (baculovirus)
The experiment in a line: In vitro JAK kinase assay (HTRF, phosphorylation of a biotinylated peptide), JAK1. The settings on record: read-out: JAK1 IC50. The essentials:
(§1)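 Phosphorylation of a biotinylated peptide by the JAK kinase domain, detected by HTRF with Eu-Py20 and SA-APC. ATP was 90 μM for JAK1, 30 μM for JAK2 and 3 μM for JAK3. Reactions ran 1 h at room temperature and were stopped with EDTA, followed by 40 min antibody binding.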

Test [2] deals with T2, human JAK2 (a.a. 828-1132) (Homo sapiens, UniProt O60674).
T2 construct: JAK2 (a.a. 828-1132); His tag (N); made in house; host or cells: insect cells (baculovirus)
T2 sequence (O60674 828-1132): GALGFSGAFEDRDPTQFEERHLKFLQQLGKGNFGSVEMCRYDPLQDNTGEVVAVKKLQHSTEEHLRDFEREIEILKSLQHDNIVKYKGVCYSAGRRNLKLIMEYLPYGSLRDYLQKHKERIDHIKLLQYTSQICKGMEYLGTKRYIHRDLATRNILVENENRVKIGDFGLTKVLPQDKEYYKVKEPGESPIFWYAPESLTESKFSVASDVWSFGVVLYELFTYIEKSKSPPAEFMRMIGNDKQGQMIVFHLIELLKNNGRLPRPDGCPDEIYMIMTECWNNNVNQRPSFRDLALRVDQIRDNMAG
The experiment in a line: In vitro JAK kinase assay (HTRF, phosphorylation of a biotinylated peptide), JAK2. The settings on record: Table D1. The essentials: as §1

The target in test [3] is T3, human JAK3 (a.a. 781-1124) (Homo sapiens, UniProt P52333).
T3 construct: JAK3 (a.a. 781-1124); His tag (N); made in house; host or cells: insect cells (baculovirus)
T3 sequence (P52333 781-1124): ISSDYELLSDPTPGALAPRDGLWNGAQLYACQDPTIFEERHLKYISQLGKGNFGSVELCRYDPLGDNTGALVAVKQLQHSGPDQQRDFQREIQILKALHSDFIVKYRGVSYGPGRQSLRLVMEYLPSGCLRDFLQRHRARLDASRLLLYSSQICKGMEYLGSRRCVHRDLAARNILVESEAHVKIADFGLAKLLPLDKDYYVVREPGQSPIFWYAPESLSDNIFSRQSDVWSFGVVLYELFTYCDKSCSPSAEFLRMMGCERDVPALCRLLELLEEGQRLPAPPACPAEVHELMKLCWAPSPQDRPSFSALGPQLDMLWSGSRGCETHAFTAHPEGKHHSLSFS
The experiment in a line: In vitro JAK kinase assay (HTRF, phosphorylation of a biotinylated peptide), JAK3. How it is done:
The catalytic activity of JAK1, JAK2 or JAK3 was assayed by measuring the phosphorylation of a biotinylated peptide. The phosphorylated peptide was detected by homogenous time resolved fluorescence (HTRF). […] The ATP concentration in the reactions was 90 μM for JAK1, 30 μM for JAK2 and 3 μM for JAK3. Reactions were carried out at room temperature for 1 hr and then stopped with 20 μL 45 mM EDTA, 300 nM SA-APC, 6 nM Eu-Py20 in assay buffer (Perkin Elmer, Boston, Mass.). Binding to the Europium labeled antibody took place for 40 minutes and HTRF signal was measured on a Fusion plate reader (Perkin Elmer, Boston, Mass.).
The catalytic activity of JAK1, JAK2 or JAK3 was assayed by measuring the phosphorylation of a biotinylated peptide. The phosphorylated peptide was detected by homogenous time resolved fluorescence (HTRF). […] Reactions were carried out at room temperature for 1 hr and then stopped with 20 μL 45 mM EDTA, 300 nM SA-APC, 6 nM Eu-Py20 in assay buffer (Perkin Elmer, Boston, Mass.). Binding to the Europium labeled antibody took place for 40 minutes and HTRF signal was measured on a Fusion plate reader (Perkin Elmer, Boston, Mass.).

The target in another test is TYK2 (Homo sapiens, UniProt P29597). The experiment in a line: TYK2 kinase inhibition (Table A1).
TYK2, sequence (P29597 whole entry): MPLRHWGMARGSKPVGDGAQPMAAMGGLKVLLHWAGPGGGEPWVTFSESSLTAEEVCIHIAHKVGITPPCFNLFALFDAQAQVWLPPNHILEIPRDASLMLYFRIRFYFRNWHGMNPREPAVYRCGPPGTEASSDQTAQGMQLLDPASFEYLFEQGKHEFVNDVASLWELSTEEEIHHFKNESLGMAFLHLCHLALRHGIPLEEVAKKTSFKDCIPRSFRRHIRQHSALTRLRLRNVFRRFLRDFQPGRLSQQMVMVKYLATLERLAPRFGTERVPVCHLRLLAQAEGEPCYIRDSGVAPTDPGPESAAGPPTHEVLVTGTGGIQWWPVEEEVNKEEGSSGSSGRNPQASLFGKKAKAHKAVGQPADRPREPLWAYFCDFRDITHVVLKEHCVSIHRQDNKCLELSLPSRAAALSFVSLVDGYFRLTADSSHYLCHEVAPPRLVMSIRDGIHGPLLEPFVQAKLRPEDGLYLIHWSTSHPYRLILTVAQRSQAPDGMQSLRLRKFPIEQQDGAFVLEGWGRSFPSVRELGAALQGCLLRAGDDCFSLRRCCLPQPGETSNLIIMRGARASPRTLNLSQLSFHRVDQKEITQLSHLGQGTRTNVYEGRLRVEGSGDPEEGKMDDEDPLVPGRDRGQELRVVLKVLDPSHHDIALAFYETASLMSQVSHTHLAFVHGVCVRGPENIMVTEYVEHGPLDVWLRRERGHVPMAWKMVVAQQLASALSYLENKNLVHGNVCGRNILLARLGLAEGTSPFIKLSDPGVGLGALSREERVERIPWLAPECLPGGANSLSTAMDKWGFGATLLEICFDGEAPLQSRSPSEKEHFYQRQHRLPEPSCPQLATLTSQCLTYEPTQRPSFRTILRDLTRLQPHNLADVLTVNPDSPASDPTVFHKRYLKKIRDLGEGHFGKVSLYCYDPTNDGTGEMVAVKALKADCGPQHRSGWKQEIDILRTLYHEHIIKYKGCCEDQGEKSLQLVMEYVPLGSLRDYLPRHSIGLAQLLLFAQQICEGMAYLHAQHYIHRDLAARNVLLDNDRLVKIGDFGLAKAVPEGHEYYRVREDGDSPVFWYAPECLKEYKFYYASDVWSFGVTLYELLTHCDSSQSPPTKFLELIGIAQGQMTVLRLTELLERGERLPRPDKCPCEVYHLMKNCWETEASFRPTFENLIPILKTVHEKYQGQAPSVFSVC

T1 sequence (P23458 849-1154): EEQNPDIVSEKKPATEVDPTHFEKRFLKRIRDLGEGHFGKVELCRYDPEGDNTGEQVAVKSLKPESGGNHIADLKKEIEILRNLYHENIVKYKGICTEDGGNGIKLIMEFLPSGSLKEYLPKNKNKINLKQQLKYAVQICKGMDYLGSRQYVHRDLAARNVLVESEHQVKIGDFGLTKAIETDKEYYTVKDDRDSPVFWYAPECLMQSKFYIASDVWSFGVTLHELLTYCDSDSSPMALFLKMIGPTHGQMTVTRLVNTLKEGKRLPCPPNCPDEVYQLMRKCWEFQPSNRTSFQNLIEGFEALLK

For the compound `O=C(COc1ccc2cc1CCc1cncc(c1)Nc1ncc(Cl)c(n1)N2)N1CCN(Cc2cccnc2)CC1` [Example D255, 6-Chloro-12-{2-oxo-2-[4-(pyridin-3-ylmethyl)piperazin-1-yl]ethoxy}-2,4,8,18,22-pentaazatetracyclo[14.3.1.1(3,7).1(9,13)]docosa-1(20),3(22),4,6,9(21),10,12,16,18-nonaene tris(trifluoroacetate)], the pIC50 is 7.05 in test [1] (Table D1), 6.65 in test [2], less than 6.40 in test [3] (Table D1) and less than 6.40 against TYK2 (Table D1).
In the case of `N#Cc1cccnc1N1CCN(C(=O)COc2ccc3cc2CCc2cncc(c2)Nc2ncc(Cl)c(n2)N3)CC1` [Example D238, 2-[4-({[6-Chloro-2,4,8,18,22-pentaazatetracyclo[14.3.1.1(3,7).1(9,13)]docosa-1(20),3(22),4,6,9(21),10,12,16,18-nonaen-12-yl]oxy}acetyl)piperazin-1-yl]nicotinonitrile tris(trifluoroacetate)], the pIC50 in test [1] (Table D1) is 7.39; in test [2] it was less than 6.40; in test [3] (Table D1), less than 6.40; against TYK2 (Table D1), less than 6.40.
As for `O=C(Nc1ccc2cc1CCc1cccc(c1)Nc1ncc(Cl)c(n1)N2)c1nc2ccccc2s1` [Example B74, N-[6-Chloro-2,4,8,22-tetraazatetracyclo[14.3.1.1(3,7).1(9,13)]docosa-1(20), 3(22),4,6,9(21),10,12,16,18-nonaen-12-yl]-1,3-benzothiazole-2-carboxamide trifluoroacetate], the pIC50 (in test [1] (Table B1); in test [3] (Table B1); at TYK2 (Table B1)) was less than 6.00 throughout.
For `c1cc2cc(c1)Nc1ccnc(n1)Nc1cncc(c1)CC2` [Example D217, 2,4,8,18,22-Pentaazatetracyclo[14.3.1.1(3,7).1(9,13)]docosa-1(20),3(22),4,6,9(21),10,12,16,18-nonaene bis(trifluoroacetate)], the negative-log IC50 (pIC50) in test [1] (Table D1) was 7.28; in test [2], 6.99; in test [3] (Table D1), less than 6.40.
As to `O=C(C[C@@H]1CCN(C(=O)c2c[nH]nn2)C1)Nc1ccc2cc1CCc1cncc(c1)Nc1ncc(Cl)c(n1)N2` [Example D132, N-[6-Chloro-2,4,8,18,22-pentaazatetracyclo[14.3.1.1(3,7).1(9,13)]docosa-1(20),3(22),4,6,9(21),10,12,16,18-nonaen-12-yl]-2-[(3S)-1-(1H-1,2,3-triazol-4-ylcarbonyl)pyrrolidin-3-yl]acetamide bis(trifluoroacetate)], the figures for the pIC50 in test [1] (Table D1) and in test [2] were 8.49 and 7.37, respectively.
Turning to `Cn1ccc(C(=O)N2CC[C@@H](CC(=O)Nc3ccc4cc3CCc3cncc(c3)Nc3ncc(Cl)c(n3)N4)C2)n1` [Example D121, N-[6-Chloro-2,4,8,18,22-pentaazatetracyclo[14.3.1.1(3,7).1(9,13)]docosa-1(20),3(22),4,6,9(21),10,12,16,18-nonaen-12-yl]-2-{(3S)-1-[(1-methyl-1H-pyrazol-3-yl)carbonyl]pyrrolidin-3-yl}acetamide bis(trifluoroacetate)], the results for the pIC50 in test [1] (Table D1) and in test [2] were 7.12 and 6.26, respectively.
As for `O=C(C[C@@H]1CCCN(c2nc3ccccc3s2)C1)Nc1ccc2cc1CCc1cncc(c1)Nc1ncc(Cl)c(n1)N2` [Example D211, 2-[(3S)-1-(1,3-Benzothiazol-2-yl)piperidin-3-yl]-N-[6-chloro-2,4,8,18,22-pentaazatetracyclo[14.3.1.1(3,7).1(9,13)]docosa-1(20),3(22),4,6,9(21),10,12,16,18-nonaen-12-yl]acetamide tris(trifluoroacetate)], the figures for the pIC50 in test [1] (Table D1) and in test [2] were 8.38 and 6.80, respectively.
`O=C(C[C@H]1CCN(C(=O)c2c[nH]nn2)C1)Nc1ccc2cc1CCc1cncc(c1)Nc1ncc(Cl)c(n1)N2` [Example D129-a, N-[6-Chloro-2,4,8,18,22-pentaazatetracyclo[14.3.1.1(3,7).1(9,13)]docosa-1(20),3(22),4,6,9(21),10,12,16,18-nonaen-12-yl]-2-[(3R)-1-(1H-1,2,3-triazol-4-ylcarbonyl)pyrrolidin-3-yl]acetamide bis(trifluoroacetate)]: the pIC50 is 7.82 in test [1] (Table D1) and 7.08 in test [2].

The values above are taken from patent US8871753B2, “Macrocyclic compounds and their use as kinase inhibitors” (Incyte Corporation, priority 2008, dated 2014).
